Several values for one entry are separate records, joined by “and”; a condition that tells them apart may be missing. Identical values can stand only once.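 96-well plates; 48 h exposure; 5 concentrations. Endpoints by linear interpolation between flanking doses. Not reached: highest tested concentration assigned. Abbreviation: GI50, concentration required for 50% inhibition of growth. TGI is the concentration that stops growth completely.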

Test systems include OVCAR-8 ovarian; SW-620 colon; HCT-15 colon; NCI/ADR-RES ovarian; MALME-3M melanoma; DU-145 prostate; RPMI-8226 leukemia; T-47D breast; KM12 colon; NCI-H23 lung.
Holding throughout (experiment): growth of human tumour cells (NCI), 48 h

On to `Cn1cc(C2=C(c3cn(CCCCCSC(=N)N)c4ccccc34)C(=O)NC2=O)c2ccccc21`, for which the GI50 with OVCAR-8 ovarian is 3.61 µM; in the assay on SW-620 colon it was 2.96 µM; in the assay on HCT-15 colon it was 3.8 µM; with NCI/ADR-RES ovarian, 8.18 µM; with MALME-3M melanoma, 4.25 µM; in the assay on DU-145 prostate it was 3.58 µM. For the same molecule, the GI50 in the assay with RPMI-8226 leukemia was 4.13 µM; in the assay on T-47D breast, 3.46 µM; in the assay with KM12 colon, 2.08 µM; in the assay with NCI-H23 lung, 3.5 µM. Besides, the TGI with OVCAR-8 ovarian worked out at 10.4 µM; in the assay on SW-620 colon, 6.54 µM; with HCT-15 colon, 8.03 µM; in the assay with NCI/ADR-RES ovarian, 21 µM; with MALME-3M melanoma, 8.08 µM; in the assay with DU-145 prostate, 6.93 µM. Besides, the TGI is 9.61 µM with RPMI-8226 leukemia, 9.63 µM in the assay on T-47D breast, 5.41 µM in the assay with KM12 colon and 7.56 µM in the assay with NCI-H23 lung.
In the case of `CN(Cc1cnc2nc(N)nc(N)c2n1)c1ccc(C(=O)NC(CCC(=O)O)C(=O)O)cc1Br` (stereo not drawn), the GI50 in the assay on OVCAR-8 ovarian, in the assay with SW-620 colon, in the assay with HCT-15 colon, with NCI/ADR-RES ovarian, in the assay with MALME-3M melanoma and in the assay with DU-145 prostate was < 0.01 µM each time. The GI50 in the assay with RPMI-8226 leukemia was < 0.01 µM; with T-47D breast, 0.113 µM; with KM12 colon, < 0.01 µM; in the assay on NCI-H23 lung it was < 0.01 µM. Further, the TGI with OVCAR-8 ovarian was > 100 µM; with SW-620 colon, > 83.9 µM; with HCT-15 colon it was > 100 µM; in the assay on NCI/ADR-RES ovarian, > 100 µM; with MALME-3M melanoma, 3.92 µM; with DU-145 prostate, > 100 µM. Moreover, the TGI with RPMI-8226 leukemia was > 100 µM; in the assay with T-47D breast, > 100 µM; with KM12 colon, 11.6 µM; in the assay with NCI-H23 lung, 2.12 µM.
Consider `COC(=O)CSSCc1ccc([N+](=O)[O-])cc1`, for which the TGI worked out at 82.1 µM in the assay with OVCAR-8 ovarian; 36.8 µM with SW-620 colon; 48 µM in the assay on HCT-15 colon; 47.1 µM in the assay with NCI/ADR-RES ovarian; 67.7 µM in the assay with MALME-3M melanoma; 50.7 µM in the assay with DU-145 prostate. The TGI in the assay with RPMI-8226 leukemia is 54.8 µM; in the assay with T-47D breast, 51.7 µM; with KM12 colon it was 38.9 µM; with NCI-H23 lung, > 100 µM.
For the molecule `O=C1/C=C/[C@@H](O)[C@@H]2C[C@@H](O)C[C@H]2/C=C/CCC[C@H](C(F)(F)F)O1`, the GI50 in the assay on OVCAR-8 ovarian was 0.254 µM; in the assay with SW-620 colon it was 0.142 µM; in the assay on HCT-15 colon, 0.32 µM; with NCI/ADR-RES ovarian, 0.408 µM; in the assay on MALME-3M melanoma, 0.0437 µM; in the assay with DU-145 prostate it was 0.955 µM. Besides, the GI50 was 0.274 µM in the assay with RPMI-8226 leukemia, 0.184 µM in the assay on T-47D breast, 1.54 µM in the assay with KM12 colon and 0.285 µM with NCI-H23 lung. The TGI with OVCAR-8 ovarian was 9.03 µM; with SW-620 colon it was 0.331 µM; in the assay with HCT-15 colon, 6.98 µM; with NCI/ADR-RES ovarian, 11.4 µM; in the assay on MALME-3M melanoma, 0.292 µM; in the assay with DU-145 prostate, > 100 µM. Also, the TGI in the assay on RPMI-8226 leukemia amounted to 1.04 µM; in the assay with T-47D breast it was 0.52 µM; in the assay on KM12 colon it was 16.2 µM; in the assay on NCI-H23 lung it was 4.17 µM.
Consider `Nc1ncnc2c1ncn2C1OC(CO)C(O)C1N` (stereo not drawn), for which the TGI in the assay with OVCAR-8 ovarian, in the assay on SW-620 colon, in the assay with HCT-15 colon, with NCI/ADR-RES ovarian, with MALME-3M melanoma and with DU-145 prostate was > 100 µM in each case. Further, the TGI in the assay on RPMI-8226 leukemia, with T-47D breast, in the assay with KM12 colon and in the assay with NCI-H23 lung was > 100 µM throughout.
In the case of `CCCCCCCCCCCCCC[C@@H](O)[C@H]1CC[C@H]([C@H]2CC[C@H]([C@H](O)CCCCCC[C@@H](O)CC3=C[C@H](C)OC3=O)O2)O1`, the GI50 was > 25 µM in the assay with OVCAR-8 ovarian; 2.44 µM in the assay on SW-620 colon; 2.42 µM in the assay with HCT-15 colon; 0.676 µM in the assay on NCI/ADR-RES ovarian; > 25 µM in the assay on DU-145 prostate; 2.16 µM in the assay with RPMI-8226 leukemia. The GI50 with T-47D breast is 2.14 µM; in the assay on KM12 colon it was 1.55 µM. Also, the TGI was 3.94 µM and > 25 µM with OVCAR-8 ovarian; > 25 µM with SW-620 colon; 5.38 µM and > 25 µM in the assay with HCT-15 colon; 2.95 µM and > 25 µM with NCI/ADR-RES ovarian; > 25 µM in the assay with MALME-3M melanoma; > 25 µM in the assay with DU-145 prostate. Also, the TGI was > 25 µM in the assay with RPMI-8226 leukemia; > 25 µM in the assay on T-47D breast; 4.1 µM and > 25 µM in the assay on KM12 colon; > 25 µM in the assay with NCI-H23 lung.
For `COc1cc2c3c(n(C)c(=O)c2cc1OC)-c1ccc(C#N)cc1C3=O`, the GI50 in the assay on OVCAR-8 ovarian, with SW-620 colon, with HCT-15 colon, in the assay with NCI/ADR-RES ovarian, in the assay with MALME-3M melanoma and with DU-145 prostate was > 100 µM in each case. Besides, the GI50 is > 100 µM with RPMI-8226 leukemia, 91.9 µM with T-47D breast, > 100 µM in the assay on KM12 colon and > 100 µM with NCI-H23 lung. Moreover, the TGI in the assay with OVCAR-8 ovarian, in the assay on SW-620 colon, in the assay on HCT-15 colon, in the assay with NCI/ADR-RES ovarian, in the assay with MALME-3M melanoma and in the assay on DU-145 prostate was > 100 µM throughout. Further, the TGI in the assay with RPMI-8226 leukemia, in the assay with T-47D breast, in the assay with KM12 colon and in the assay with NCI-H23 lung was > 100 µM in each case.

(Values after PubChem BioAssay (NCI).)
